According to ChEMBL document CHEMBL5584307, “Discovery of a Potent and Orally Bioavailable Xanthine Oxidase/Urate Transporter 1 Dual Inhibitor as a Potential Treatment for Hyperuricemia and Gout” (J Med Chem, 2024):

How the values were obtained:
[1] = Toxicity in rat assessed as mucosal necrosis in pylorus at 120 mg/kg/day for 28 days by H and E staining based analysis; type: organism-based; settings: in vivo, 672 h, time 28 day
[2] = AUC (0 to t) in male rat at 60 mg/kg/day for 28 days; type: ADME, organism-based; settings: in vivo, time 28 day
[3] = Half life in Beagle dog at 5 mg/kg, po measured upto 24 hrs by LC-MS/MS analysis; type: ADME, organism-based, Canis lupus familiaris; settings: in vivo
[4] = Cmax in Cynomolgous monkey at 5 mg/kg, po measured upto 24 hrs by LC-MS/MS analysis; type: ADME, organism-based, Macaca fascicularis; settings: cynomolgus monkey, in vivo
[5] = Toxicity in cynomolgous monkey assessed as increase in vomiting at 90 to 200 mg/kg/day for 28 days consecutively; type: organism-based, Macaca fascicularis; settings: cynomolgus monkey, in vivo, 672 h; dose 90-200 mg/kg/day, time 28 day
Sapajus apella = settings: dose 100.0 mg/kg/day, route po, time 3.0 day
[6] = Volume of distribution at steady state in Cynomolgous monkey at 5 mg/kg, po or 1 mg/kg, iv measured upto 24 hrs by LC-MS/MS analysis; type: ADME, organism-based, Macaca fascicularis; settings: cynomolgus monkey, in vivo
Cytochrome P450 2B6 = target: T1, Cytochrome P450 2B6 (Homo sapiens, UniProt P20813); experiment: Induction of CYP2B6 in human hepatocytes at 50 uM incubated for 48 hrs with media containing compound renewal every 24 hrs followed by substrate addition measured after 30 mins by LC-MS/MS analysis; type: ADME, cell-based, Hepatocyte; settings: 48.5 h
T1 sequence (P20813 whole entry): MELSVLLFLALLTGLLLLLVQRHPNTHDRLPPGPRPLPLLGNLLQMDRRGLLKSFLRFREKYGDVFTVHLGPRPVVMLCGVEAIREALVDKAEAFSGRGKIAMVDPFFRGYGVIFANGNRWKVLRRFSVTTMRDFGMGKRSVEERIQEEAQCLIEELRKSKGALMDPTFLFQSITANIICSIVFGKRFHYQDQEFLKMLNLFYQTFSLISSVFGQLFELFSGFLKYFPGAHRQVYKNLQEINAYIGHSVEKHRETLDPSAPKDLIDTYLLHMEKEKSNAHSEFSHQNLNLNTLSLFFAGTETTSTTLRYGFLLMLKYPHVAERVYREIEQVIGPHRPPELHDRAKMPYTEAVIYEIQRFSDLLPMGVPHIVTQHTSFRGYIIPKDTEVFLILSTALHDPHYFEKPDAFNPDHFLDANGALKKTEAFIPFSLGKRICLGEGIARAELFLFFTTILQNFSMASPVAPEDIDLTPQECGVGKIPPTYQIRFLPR

[7] = Toxicity in rat administered daily for 28 days; settings: in vivo, time 28 day
[8] = Ratio of drug concentration in Sprague-Dawley rat liver to plasma at 3 mg/kg, po measured for 24 hrs by LC-MS/MS analysis; type: ADME, organism-based; settings: liver and plasma
Cytochrome P450 2C8 = target: T2, Cytochrome P450 2C8 (Homo sapiens, UniProt P10632); experiment: Inhibition of CYP2C8 in human liver microsomes in presence of NADPH by LC-MS/MS analysis; type: ADME, Microsome
T2 sequence (P10632 whole entry): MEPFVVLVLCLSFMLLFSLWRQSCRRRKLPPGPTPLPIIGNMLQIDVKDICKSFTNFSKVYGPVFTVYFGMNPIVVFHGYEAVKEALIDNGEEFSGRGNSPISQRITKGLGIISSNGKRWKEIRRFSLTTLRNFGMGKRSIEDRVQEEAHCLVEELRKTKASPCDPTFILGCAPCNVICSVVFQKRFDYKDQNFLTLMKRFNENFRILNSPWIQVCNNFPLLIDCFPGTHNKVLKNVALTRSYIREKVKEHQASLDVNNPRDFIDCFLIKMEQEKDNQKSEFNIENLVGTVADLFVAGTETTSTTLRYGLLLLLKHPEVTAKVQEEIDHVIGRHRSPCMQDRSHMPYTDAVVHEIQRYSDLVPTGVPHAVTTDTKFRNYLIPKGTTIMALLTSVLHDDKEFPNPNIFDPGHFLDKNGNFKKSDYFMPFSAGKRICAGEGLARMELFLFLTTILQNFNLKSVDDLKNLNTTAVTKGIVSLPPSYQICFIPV

[9] = Toxicity in rat assessed as acute inflammation in pylorus at 120 mg/kg/day for 28 days by H and E staining based analysis; type: organism-based; settings: in vivo, 672 h, time 28 day

For `N#Cc1cc(-c2ccc(C(=O)O)c(O)c2)c2oc(F)cc2c1`, the Activity [1] was “Toxic”, the AUC(0-t) at 672 h [2] was 2250 µg·h/mL and the half-life [3] was 2.82 h. For the same compound, the Cmax [4] was 3360 ng/mL, the Activity [5] was “Toxic” and the AUC (Sapajus apella) was 357000 ng·h/mL. The Vdss [6] was 0.297 L/kg, the Activity (Cytochrome P450 2B6) was < 20% and the NOAEL at 672 h [7] was 60 mg/kg/day. For the same compound, the Kp at 24 h [8] was 1.17, the IC50 (Cytochrome P450 2C8) was 12.2 µM and the Activity [9] was “Toxic”.
